From US9364459B2, “3-(indolyl)- or 3-(azaindolyl)- 4-arylmaleimide derivatives for use in the treatment of colon and gastric adenocarcinoma” (Johannes Gutenberg-Universität Mainz, priority 2009, dated 2016)

Experiments:
VEGFR-2 = VEGFR-2 (Homo sapiens (Human), UniProt P35968); experiment: VEGFR-2 kinase inhibition assay (Millipore IC50Profiler); type: biochemical; conditions: for VEGFR-2 IC50 values, in words: Table 2
Source text: (§1) GSK-3β, VEGFR-2, FLT-3 Kinase Inhibition Assays
(§2) Detailed protocols can be found at: www.millipore.com/drugdiscovery/dd3/assayprotocols.

FLT-3 = FLT-3 (Homo sapiens (Human), UniProt P36888); experiment: FLT-3 kinase inhibition assay (Millipore IC50Profiler); type: biochemical; conditions: for FLT-3 inhibition, in words: Table 2
Procedure: as §1
The effect of test compounds on the activity of the protein kinases GSK-3β, VEGFR-2 and FLT-3 was evaluated based on half maximal inhibitory concentration (IC50) values determined by Millipore UK Ltd; Gemini Crescent; Dundee Technology Park; Dundee DD2 1SW; UK (IC50Profiler). Detailed protocols can be found at: www.millipore.com/drugdiscovery/dd3/assayprotocols.

GSK-3β = GSK-3β (Homo sapiens (Human), UniProt P49841); experiment: GSK-3β kinase inhibition assay (Millipore IC50Profiler); type: biochemical; conditions: for GSK-3β IC50 values, in words: Table 2
Source text: as §1, §2

HT-29 = experiment: Nicoletti apoptosis assay in HT-29 cells; type: cell-based, human; conditions: for Sub-G1 Fraction: HT-29; for Activity in combination with irinotecan relative to compound A, in words: HT-29 cells
Procedure: (§3) Nicoletti Apoptosis Assay by Cell Cycle Analysis
(§4) Cancer cells were transferred to 12-well flat-bottomed plates. […] Subsequently, cells were incubated in 1 ml medium containing various concentrations of test compounds at 37° C. with 5% CO2. After incubation the cells were washed with PBS, trypsinized, pelleted and mixed with PI buffer (containing 0.1% sodium citrate, 0.1% triton X-100, […] propidium iodide (PI)) and incubated for 1 hour at 4° C. Cell cycle sub-G1 fraction analysis was performed as described previously (Nicoletti, I. et al. (1991) J. Immunol. Methods 139, 271-279) using a flow cytometer (BD FACS Calibur™, BD Biosciences, Heidelberg, Germany). Each experiment was done in triplicate.

[1] = system: HT-29 human colon adenocarcinoma cells; experiment: MTT viability assay in HT-29 cells; conditions: HT-29, 72 h, read-out: Viability of HT-29 cells as determined by MTT assay
Procedure: Evaluation of Effect on Viability (MTT Assay)
The antiproliferative activity of test compounds was determined by the 3-(4,5-dimethylthiazol-2-yl)-2,5-diphenyltetrazolium bromide (MTT) assay as described previously (Mosmann, T. et al. (1983) J. Immunol. Methods 65, 55-63). Cells in the exponential growth phase were transferred to 96-well flat-bottom plates. 10,000 viable cells contained in 200 μl cell suspension were plated into each well and incubated over night. Cells were then exposed to various concentrations of test compounds (100 μl/well) for 3 days at 37° C. with 5% CO2. Subsequently, 10 μl/well MTT stock solution (5 mg/ml; Biomol, Germany) was added and the cells were incubated at 37° C. with 5% CO2 for 4 hours. 100 μl solubilization solution (10% SDS in 0.01 M HCl) was added and the cells were incubated at 37° C. with 5% CO2 over night. Plates were read on an ELISA-Reader ELX 800 (BIO-TEK Software KC 4) at 562 nm absorbance. Each experiment was done in triplicate.
HCT-116, HT-29 and SW480 cells were cultured in RPMI1640 supplemented with 10% FCS. […] All cells were maintained at 37° C. and 5% CO2.

[2] = system: chick embryo microvessel formation; experiment: Quantitative chick embryo in vivo assay of antiangiogenic activity; conditions: Gallus gallus; 26 nM drug concentration/pellet; 24 hours incubation; read-out: Inhibition of microvessel area
Procedure: Evaluation of Antiangiogenic Activity in a Quantitative Chick Embryo In Vivo Assay
The inhibition of angiogenesis (new blood vessel formation) was measured as described in WO2006/061212.

HUVEC = experiment: Nicoletti apoptosis assay (sub-G1 fraction) in HUVEC; type: cell-based, human; conditions: 4 days, untreated 15.4 ± 1.5%
Procedure: as §3, §4
The same analysis was performed with HUVEC cells. 1.5×10^4 cells were plated into each well and treated with test compounds for 4 days.
Human Umbilical Vein Endothelial Cells (HUVEC) known for mitogenic specifity for VEGF were obtained from the Department of Pathology, University Hospital of Mainz, Germany. The cells were cultured in M199 supplemented with 20% FCS, 1% Pen/Strep, 0.34% GlutaMAX-I, 25 μg/ml Endothelial Cell Growth Supplement (BD Biosciences), 25 μg/ml Heparin sodium (179 USP units/mg; Sigma, Germany) and were maintained at 37° C. and 5% CO2.

[3] = Table 8, 7.9 μM test compound alone, drug-free control 3.4 ± 0.9%
[4] = Table 8, 7.9 μM test compound plus 1.18 μM irinotecan

GSK-3β, sequence (P49841 whole entry): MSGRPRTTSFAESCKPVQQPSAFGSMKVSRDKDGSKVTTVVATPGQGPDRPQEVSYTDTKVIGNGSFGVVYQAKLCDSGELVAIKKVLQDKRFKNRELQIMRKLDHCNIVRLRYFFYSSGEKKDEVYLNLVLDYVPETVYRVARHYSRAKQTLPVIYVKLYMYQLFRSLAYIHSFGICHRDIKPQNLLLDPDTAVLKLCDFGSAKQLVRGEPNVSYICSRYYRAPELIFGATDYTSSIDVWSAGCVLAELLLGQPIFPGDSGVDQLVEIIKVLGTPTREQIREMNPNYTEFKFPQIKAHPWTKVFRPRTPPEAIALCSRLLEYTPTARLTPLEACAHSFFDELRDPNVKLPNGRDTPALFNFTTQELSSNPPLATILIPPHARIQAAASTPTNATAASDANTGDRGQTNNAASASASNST
VEGFR-2, sequence (P35968 20-1356): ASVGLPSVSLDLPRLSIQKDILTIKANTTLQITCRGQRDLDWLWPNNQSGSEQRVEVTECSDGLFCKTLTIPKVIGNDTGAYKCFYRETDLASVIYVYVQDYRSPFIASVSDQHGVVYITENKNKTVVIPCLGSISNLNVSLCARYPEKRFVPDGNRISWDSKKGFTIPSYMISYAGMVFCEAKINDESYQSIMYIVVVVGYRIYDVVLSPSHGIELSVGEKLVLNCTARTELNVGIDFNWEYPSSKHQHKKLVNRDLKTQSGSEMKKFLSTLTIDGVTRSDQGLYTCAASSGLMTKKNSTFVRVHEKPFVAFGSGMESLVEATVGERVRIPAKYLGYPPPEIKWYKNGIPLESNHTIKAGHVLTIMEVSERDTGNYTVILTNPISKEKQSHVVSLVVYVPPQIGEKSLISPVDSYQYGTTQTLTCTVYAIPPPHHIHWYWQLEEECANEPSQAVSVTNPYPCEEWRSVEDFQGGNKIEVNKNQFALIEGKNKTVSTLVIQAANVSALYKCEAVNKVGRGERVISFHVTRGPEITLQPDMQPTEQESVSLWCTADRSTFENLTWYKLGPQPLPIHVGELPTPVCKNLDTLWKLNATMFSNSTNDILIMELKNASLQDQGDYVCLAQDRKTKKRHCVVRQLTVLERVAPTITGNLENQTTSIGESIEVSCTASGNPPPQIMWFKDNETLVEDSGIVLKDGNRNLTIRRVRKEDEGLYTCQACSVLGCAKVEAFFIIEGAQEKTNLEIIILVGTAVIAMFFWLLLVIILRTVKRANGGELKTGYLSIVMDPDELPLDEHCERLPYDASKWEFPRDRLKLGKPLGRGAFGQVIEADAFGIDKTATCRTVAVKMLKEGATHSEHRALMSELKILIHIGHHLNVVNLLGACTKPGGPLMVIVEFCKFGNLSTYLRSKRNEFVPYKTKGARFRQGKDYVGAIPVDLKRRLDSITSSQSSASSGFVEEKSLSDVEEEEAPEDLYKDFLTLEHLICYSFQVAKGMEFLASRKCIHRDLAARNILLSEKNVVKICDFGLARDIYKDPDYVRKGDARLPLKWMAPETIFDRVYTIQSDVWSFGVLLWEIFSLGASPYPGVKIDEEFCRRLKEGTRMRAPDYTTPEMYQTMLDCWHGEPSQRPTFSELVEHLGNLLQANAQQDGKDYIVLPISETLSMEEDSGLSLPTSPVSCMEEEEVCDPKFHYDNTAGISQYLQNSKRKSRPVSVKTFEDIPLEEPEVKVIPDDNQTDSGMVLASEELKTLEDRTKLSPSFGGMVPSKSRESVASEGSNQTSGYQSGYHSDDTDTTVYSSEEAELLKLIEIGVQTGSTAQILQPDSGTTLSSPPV
FLT-3, sequence (P36888 27-993): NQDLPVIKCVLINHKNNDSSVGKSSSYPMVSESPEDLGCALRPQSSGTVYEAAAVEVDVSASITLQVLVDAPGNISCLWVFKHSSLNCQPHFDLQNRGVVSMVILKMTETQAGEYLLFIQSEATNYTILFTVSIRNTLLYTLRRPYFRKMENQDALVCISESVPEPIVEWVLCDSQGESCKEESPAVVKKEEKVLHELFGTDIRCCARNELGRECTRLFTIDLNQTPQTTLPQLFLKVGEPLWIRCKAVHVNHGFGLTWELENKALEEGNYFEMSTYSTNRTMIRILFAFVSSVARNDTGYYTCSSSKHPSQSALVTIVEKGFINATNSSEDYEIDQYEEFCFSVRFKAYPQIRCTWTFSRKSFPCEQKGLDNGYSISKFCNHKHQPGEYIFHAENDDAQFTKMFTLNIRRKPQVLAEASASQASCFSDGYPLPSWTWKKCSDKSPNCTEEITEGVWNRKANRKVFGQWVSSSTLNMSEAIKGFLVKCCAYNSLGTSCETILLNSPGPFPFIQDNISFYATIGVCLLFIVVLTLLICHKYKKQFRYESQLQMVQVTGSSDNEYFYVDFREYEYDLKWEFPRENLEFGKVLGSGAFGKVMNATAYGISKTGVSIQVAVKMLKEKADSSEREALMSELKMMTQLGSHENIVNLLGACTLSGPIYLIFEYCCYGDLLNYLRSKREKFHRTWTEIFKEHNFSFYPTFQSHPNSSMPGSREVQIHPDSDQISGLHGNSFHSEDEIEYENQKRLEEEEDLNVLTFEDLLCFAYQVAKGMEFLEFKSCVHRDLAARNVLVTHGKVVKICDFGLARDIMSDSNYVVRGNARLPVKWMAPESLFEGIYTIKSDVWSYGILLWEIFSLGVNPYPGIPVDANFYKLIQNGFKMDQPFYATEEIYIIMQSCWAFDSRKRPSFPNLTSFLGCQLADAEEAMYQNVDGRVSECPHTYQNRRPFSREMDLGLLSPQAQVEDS

Compound | IC50 (VEGFR-2) [µM] | IC50 (FLT-3) [µM] | IC50 (GSK-3β) [µM] | Sub-G1 Fraction (HT-29; [3]) [%] | Sub-G1 Fraction (HT-29; [4]) [%] | melting point [°C] | GSK-3β IC50 values, in words (GSK-3β) | also measured
COc1cc(C2=C(c3cn(CCCN(C)C)c4ccccc34)C(=O)NC2=O)cc(OC)c1OC [K, 3-{1-[3-(Dimethylamino)propyl]-1H-indol-3-yl}-4-(3,4,5-trimethoxyphenyl) maleinimide] | > 10 | 1.53 | > 1 | 3.17 ± 0.86 | 50.28 ± 1.31 |  |  | 
COc1cc(C2=C(c3cn(CCCN4CCN(C)CC4)c4ccccc34)C(=O)NC2=O)cc(OC)c1OC [N, 3-{1-[3-(4-Methylhexahydro-1-pyrazindiiumyl)propyl]-1H-indol-3-yl}-4-(3,4,5-trimethoxyphenyl)-maleinimide dichloride] | 2.83 | > 10 | 3.24 | 3.01 ± 0.40 | 49.49 ± 1.82 |  |  | 
COc1cc(C2=C(c3c[nH]c4cccnc34)C(=O)NC2=O)cc(OC)c1OC [E, 3-(4-Azaindol-3-yl)-4-(3,4,5-trimethoxyphenyl)-1H-pyrrol-2,5-dione] | 0.373 | 1.52 | 0.215 | 4.22 ± 0.74 | 25.71 ± 1.97 | 274 to 275 |  | viability at 2.6 µM [1]: 114 ± 5.2%; viability at 7.9 µM [1]: 98.31 ± 0.9%; viability at 26 µM [1]: 92.6 ± 2.8%; viability at 52 µM [1]: 65.8 ± 1.5%
COc1cc(C2=C(c3cn(CCCO)c4ccccc34)C(=O)NC2=O)cc(OC)c1OC [I, 3-(1-[3-Hydroxypropyl]-1H-indol-3-yl)-4-(3,4,5-trimethoxyphenyl)-maleinimide] |  | 0.556 |  | 11.25 ± 0.11 | 65.71 ± 0.04 | 160 | low nanomolar range | 
COc1cc(C2=C(c3c[nH]c4ncccc34)C(=O)NC2=O)cc(OC)c1OC [B, 3-(7-Azaindol-3-yl)-4-(3,4,5-trimethoxyphenyl)-maleinimid] | 0.037 | 0.132 | > 10 | 2.32 ± 1.16 | 22.36 ± 2.80 |  |  | VEGFR-2 IC50 values, in words (VEGFR-2): low nanomolar range; FLT-3 inhibition, in words (FLT-3): most significantly inhibited; inhibition at 0.026 µM [2]: 61%; Sub-G1 Fraction (HUVEC; 0.79 μM): 26.7 ± 1.9%; Sub-G1 Fraction (HUVEC; 2.6 μM): 49.2 ± 2.2%; Sub-G1 Fraction (HUVEC; 7.9 μM): 69.5 ± 3.4%; viability at 2.6 µM [1]: 65 ± 2.16%; viability at 7.9 µM [1]: 45.5 ± 3.71%; viability at 26 µM [1]: 38.5 ± 0.99%; viability at 52 µM [1]: 38.1 ± 5.43%
CCN(CC)CCNC(=O)c1c(C)[nH]c(/C=C2\C(=O)Nc3ccc(F)cc32)c1C [sunitinib, reference compound] |  |  |  |  |  |  |  | Sub-G1 Fraction (HT-29; Table 9, 5 μM sunitinib plus 1.18 μM Irinotecan, 7 days): 24.5 ± 1.2%; Sub-G1 Fraction (HT-29; Table 9, single-agent treatment, 5 μM sunitinib, 7 days): 11.8 ± 1.0%
COc1cc(C2=C(c3cn(CCN4CCOCC4)c4ccccc34)C(=O)NC2=O)cc(OC)c1OC [M, 3-{1-(2-morpholinoethyl)-1H-indol-3-yl}-4-(3,4,5-trimethoxyphenyl)-maleinimide] | 9.2 | > 10 | 0.657 | 10.01 ± 2.16 | 56.81 ± 3.96 | 238 to 239 |  | 
COc1cc(C2=C(c3cn(CCN)c4ccccc34)C(=O)NC2=O)cc(OC)c1OC.Cl [F, 3-(1-[2-Ammonioethyl]-1H-indol-3-yl)-4-(3,4,5-trimethoxyphenyl)-maleinimide-chloride] | 1.89 | 0.227 | 0.195 | 5.69 ± 0.69 | 51.00 ± 0.56 |  | low nanomolar range | FLT-3 inhibition, in words (FLT-3): most significantly inhibited
COc1cc(C2=C(c3cn(CCN(C)C)c4ccccc34)C(=O)NC2=O)cc(OC)c1OC [J, 3-{1-[2-(Dimethylamino)ethyl]-1H-indol-3-yl}-4-(3,4,5-trimethoxyphenyl)-maleinimide] | 1.3 | > 1 | 3.58 | 2.50 ± 1.73 | 43.48 ± 1.87 | 184 to 185 |  | 
COc1cc(C2=C(c3cn(CCN4CCCCC4)c4ccccc34)C(=O)NC2=O)cc(OC)c1OC [L, 3-{1-[2-(piperidin-1-yl)ethyl]-1H-indol-3-yl}-4-(3,4,5-trimethoxyphenyl)-maleinimide] | 1.21 | 1.24 | > 1 | 4.64 ± 0.75 | 62.32 ± 1.63 | 179 to 180 |  | Activity in combination with irinotecan relative to compound A, in words (HT-29): even more potent than compound A
COc1cc(C2=C(c3cn(CCCN)c4ccccc34)C(=O)NC2=O)cc(OC)c1OC.Cl [G, 3-(1-[3-Ammoniopropyl]-1H-indol-3-yl)-4-(3,4,5-trimethoxyphenyl)-maleinimide-chloride] | 1.5 | > 1 | 0.129 | 4.01 ± 0.66 | 56.01 ± 0.29 |  | low nanomolar range | 
COc1cc(C2=C(c3c[nH]c4ccncc34)C(=O)NC2=O)cc(OC)c1OC [Compound D, 3-(5-Azaindol-3-yl)-4-(3,4,5-trimethoxyphenyl)-maleinimid] | 0.023 | 6.27 | 0.05 | 21.51 ± 2.89 | 47.53 ± 0.47 |  | low nanomolar range | VEGFR-2 IC50 values, in words (VEGFR-2): low nanomolar range; inhibition at 0.026 µM [2]: 69%; Sub-G1 Fraction (HUVEC; 0.79 μM): 25.7 ± 1.2%; Sub-G1 Fraction (HUVEC; 2.6 μM): 70.2 ± 2.7%; Sub-G1 Fraction (HUVEC; 7.9 μM): 79.9 ± 3.8%; viability at 2.6 µM [1]: 62.21 ± 0.33%; viability at 7.9 µM [1]: 64.2 ± 0.76%; viability at 26 µM [1]: 39.6 ± 1.9%; viability at 52 µM [1]: 19.2 ± 0.26%
COc1cc2c(Nc3ccc(Br)cc3F)ncnc2cc1OCC1CCN(C)CC1 [vandetanib, reference compound] |  |  |  |  |  |  |  | Sub-G1 Fraction (HT-29; Table 9, 10 μM vandetanib plus 1.18 μM Irinotecan, 7 days): 35.2 ± 0.4%; Sub-G1 Fraction (HT-29; Table 9, single-agent treatment, 10 μM vandetanib, 7 days): 11.1 ± 1.9%
COc1cc(C2=C(c3cn(CCO)c4ccccc34)C(=O)NC2=O)cc(OC)c1OC [H, 3-(1-[2-Hydroxyethyl]-1H-indol-3-yl)-4-(3,4,5-trimethoxyphenyl)-maleinimide] |  | 0.554 |  | 8.08 ± 0.77 | 71.28 ± 3.51 | 195 to 196 | low nanomolar range | Activity in combination with irinotecan relative to compound A, in words (HT-29): even more potent than compound A
